Data: patent EP0958287B1, “SULFAMIDE-METALLOPROTEASE INHIBITORS” (F. HOFFMANN-LA ROCHE AG, priority 1997, dated 1998)

Key:
TNF-α = test: Inhibition of LPS induced TNF-α production in mice in vivo; settings: Female Balb/c mice, subcutaneous, LPS 50 µg/mouse i.p. after 1 h, serum TNF-α 1.5 h later
Protocol: The activity of compounds of this invention in inhibiting the TNF-α release was determined, using a minor modification of the methods described in Zanetti, G.; Heumann, D., et. al., "Cytokine production after intravenous or peritoneal Gram-negative bacterial challenge in mice" J. Immunol., 148, 1890, (1992) and Sekut, L., Menius, J.A., et. al., "Evaluation if the significance of elevated levels of systemic and localized tumor necrosis factor in different animal models of inflammation" J. Lab. Clin. Med., 124, 813, (1994).
Female Balb/c mice were anesthetized and injected subcutaneously with the test compounds dissolved in CMC vehicle or hydroxypropylmethyl cellulose based vehicle. Control animals received only the vehicle. After 1 h, LPS (50 µg/ mouse, Sigma #13129, Sigma Chemical Co., St. Louis, MO) was injected intraperitoneally. After 1.5 h, blood was collected from the retro-orbital plexus region of the animals in a microtainer serum separator tube (Becton Dickinson, Cat. No. #5960, Becton Dickinson & Co., Franklin Lakes, NJ). The sera was separated and the amount of TNF-α was determined using the EM-TNFA® kit (Endogen, Woburn, MA) by following the manufacturer's protocol.

TNF = test: Inhibition of TNF release in vitro (LPS/PMA stimulated Monomac 6 cells); assay type: cell-based; settings: Homo sapiens, MONO-MAC-6, Conc. 10 µM, 2 h
Protocol: The activity of compounds of this invention in inhibiting the TNF release was determined, using the a minor modification of the method described in Pradines-Figueres, A. and Raetz, C.R.H., J. Biol. Chem., 267 (32), 23261, (1992).
Human Monomac 6 cells (Ziegler-Heitbrock, H.W.L., et al., Int. J. Cancer, 41, 456, (1988)) were cultured at 37 °C in RPMI 1640 medium containing 10% fetal calf serum to a density of 1 x 10^5 cells/ml. 0.23 ml of these cells were placed in each well of a tissue culture plate and the cells were incubated for 15 min. The test compounds were dissolved in above mentioned medium and added and the incubation was continued for an additional 15 min. 10 µl of an lipopolysaccharide/phorbol-12-myristate -13-acetate (LPS/PMA) mixture was added such that the final concentration of lipopolysaccharide was 10 ng/ml and the final concentration of phorbol-12-myristate -13-acetate was 30 ng/ml. The cells were incubated for 2 h after which the plate was centrifuged and the medium was removed and analyzed for TNF content. The analysis was performed using a TNF Quantikine® Immunoassay (R & D Systems, Minneapolis, MN 55413) by following the manufacturer's protocol.

collagen matrix [1] = test: Cartilage plug degradation in vivo (cartilage plug implant assay, hydroxyproline content); settings: cartilage plug implant in female Lewis rats, terminated after 8 or 9 days; hydroxyproline content relative to vehicle group
collagen matrix [2] = test: Degradation of cartilage plug in vitro (IL-1-α stimulated cartilage explants, hydroxyproline content); assay type: cell-based; settings: bovine cartilage explants stimulated with IL-1-α 20 ng/ml, 21 days; compounds at concentrations between 10 and 300 nm; hydroxyproline content relative to control
Protocol: The ability of the compounds of this invention to inhibit the degradation of the collagen matrix (as judged by release of hydroxyproline) was determined by the cartilage plug degradation assay in vitro by following a slight modification of the method described in Spirito, S., Doughty, E., et al., "Metalloproteinase inhibitors halt collagen breakdown in IL-1 induced bovine nasal cartilage cultures" Inflamm.
The cultures were stimulated with IL-1-α at a final concentration of 20 ng/ml. Compounds of Formula (I), were added at concentrations between 10 and 300 nm in DMSO. The control samples contained only IL-1-α. […] The cartilage plugs were removed, hydrolyzed and the hydroxyproline content was determined. The MMP inhibitory activity of test materials is the measure of the hydroxyproline content in the test group relative to the vehicle treated group (control group).

human collagenase-3 = test: Inhibition of matrix metalloproteases in vitro: human collagenase-3; assay type: biochemical; settings: hydrolysis of MCA-Pro-Leu-Gly-Leu-DPA-Ala-Arg-NH2 at 37 °C; species of collagenase-III not given
human collagenase-1 = test: Inhibition of matrix metalloproteases in vitro: collagenase-1; assay type: biochemical; settings: hydrolysis of MCA-Pro-Leu-Gly-Leu-DPA-Ala-Arg-NH2 at 37 °C; read-out: Collagenase-I IC50
Protocol: The matrix metalloprotease enzyme was diluted with assay buffer (50 mM Tricine pH 7.5, 200 mM NaCl, 10 mM CaCl2, and 0.005% Brij-35) containing 10 µmole of above substrate dissolved in DMSO.

SMILES	% inhibition (TNF-α) [%]	% protection (collagen matrix [1]) [%]	other results
O=C(NO)C1CCCCN1S(=O)(=O)N1CCN(c2ccc(Cl)cc2)CC1 (racemic) [compound 234]	46	–	–
CC(C)[C@H](C(=O)NO)N(Cc1ccccc1)S(=O)(=O)N1CCCCC1 [compound 1, N-hydroxy-2-(R)-[benzyl-(piperidine-1-sulfonyl)amino]-3-methylbutyramide]	–	–	inhibition at 10 µM (TNF): < 15%
CC(C)[C@@H](NS(=O)(=O)N1CCN(c2ccc(Cl)cn2)CC1)C(=O)NO [compound 50]	–	70	% protection (collagen matrix [2]): 71%
CC(C)[C@@H](NS(=O)(=O)N1CCN(c2ccc(Cl)cc2)CC1)C(=O)NO [compound 51]	–	45	% protection (collagen matrix [2]): 35%
CC(C)[C@@H](NS(=O)(=O)N1CCN(c2ccc(OCc3ccccc3)cc2)CC1)C(=O)NO [compound 74, N-hydroxy-2-(R)-{[4-(4-benzyloxyphenyl)piperazine-1-sulfonyl]amino}-3-methylbutyramide]	–	46	inhibition at 10 µM (TNF): 17%
CC(C)[C@@H](NS(=O)(=O)N1CCC(Oc2ccc(F)cc2)CC1)C(=O)NO [compound 179]	–	63	–
O=C(NO)[C@H]1CCCCN1S(=O)(=O)N1CCCC1 [compound 232]	73	–	–
O=C(c1ccc(Cl)cc1)C1CCN(S(=O)(=O)N2CCCC[C@@H]2C(=O)NO)CC1 [compound 242]	–	–	% protection (collagen matrix [2]): 27%
O=CN1CCN(S(=O)(=O)N2CCC(C(=O)c3ccc(Cl)cc3)CC2)C(C(=O)NO)C1 (stereo not shown) [compound 262]	50	–	–
N#Cc1ccc2[nH]cc(C3CCN(S(=O)(=O)N4CCCC[C@@H]4C(=O)NO)CC3)c2c1 [compound 294]	90	–	–
CN(C)C(=O)N1CCN(S(=O)(=O)N2CCC(c3c[nH]c4c(F)c(F)c(F)c(F)c34)CC2)[C@@H](C(=O)NO)C1 [compound 309]	46	–	–
CC(C)[C@@H](NS(=O)(=O)N1CCN(c2ccc(OCc3ccncc3)cc2)CC1)C(=O)O [compound 413]	–	–	IC50 (human collagenase-3): 0.26 µM; IC50 (human collagenase-1): 9.3 µM
